Our source for the ring closure, yield of all isomers, IC50 and PKC isozyme selectivity values is patent publication US5698578A, “Protein kinase C inhibitors” (Eli Lilly and Company, priority 1996, dated 1997).

Entries after “also recorded” stand apart in the source; their conditions may differ. Some results are limits rather than exact numbers.

For series [1] the following is noted: from CN1C(=O)C(c2c[nH]c3ccccc23)=C(c2cn(CCOC(CCI)CO[Si](c3ccccc3)(c3ccccc3)C(C)(C)C)c3ccccc23)C1=O; amine bond; Cs2CO3; DMF; 8.98 mM; 68.0 h.
Series [2] has as its target Protein Tyrosine Kinase (src) (Homo sapiens, UniProt P12931). Description: Protein Tyrosine Kinase Assay (src). The class given is biochemical. The following applies: Table 1; Raytide substrate. On the procedure: Protein Tyrosine Kinase Assay (src)
The Assay components are the following:
4 μL DMSO or DMSO/inhibitor

The test system of series [3] is protein kinase C isozymes. To be noted: literature; cited from earlier work.
A further series has as its target PKC-α (Homo sapiens, UniProt P17252). Description: PKC Enzyme Assay, alpha isozyme. The class given is biochemical. To be noted: Table 1, 30 μM ATP, 30° C., 10 minutes. The procedure: PKC enzymes=alpha, beta I, beta II, gamma, delta, epsilon, eta and zeta.
Assay components in a total volume of 250 μL are as follows:
For all the enzymes either histone type HL (Worthington) or myelin basic protein is used as substrate. The assay is started by addition of protein kinase C enzyme incubated at 30° C. for 10 minutes and stopped by adding 0.5 mL of cold trichloroacetic acid (Amresco) followed by 100 μL of 1 mg/mL bovine serum albumin (Sigma, St. Louis, Mo.). The precipitate is collected by vacuum filtration on glass fiber filters employing a TOMTEC™ filtration system and quantified by counting in a beta scintillation counter.

Protein Tyrosine Kinase (src), sequence (P12931 whole entry, species assumed): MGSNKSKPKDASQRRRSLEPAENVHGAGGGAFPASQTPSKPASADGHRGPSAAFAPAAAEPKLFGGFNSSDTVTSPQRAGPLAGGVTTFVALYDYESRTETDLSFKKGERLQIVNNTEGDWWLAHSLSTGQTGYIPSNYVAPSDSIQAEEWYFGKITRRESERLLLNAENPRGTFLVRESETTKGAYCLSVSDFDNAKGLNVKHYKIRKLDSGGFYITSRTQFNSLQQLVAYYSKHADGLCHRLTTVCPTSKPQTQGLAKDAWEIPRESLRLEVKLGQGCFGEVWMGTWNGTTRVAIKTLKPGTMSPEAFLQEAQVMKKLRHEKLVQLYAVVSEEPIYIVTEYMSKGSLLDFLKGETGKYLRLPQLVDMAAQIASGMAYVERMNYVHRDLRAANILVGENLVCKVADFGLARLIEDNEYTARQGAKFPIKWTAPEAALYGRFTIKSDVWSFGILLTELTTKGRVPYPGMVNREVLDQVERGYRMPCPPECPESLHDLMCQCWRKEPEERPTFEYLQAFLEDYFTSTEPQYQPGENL

`CN1C(=O)C2=C(C1=O)c1cn(c3ccccc13)CCC(CO[Si](c1ccccc1)(c1ccccc1)C(C)(C)C)OCCn1cc2c2ccccc21` (stereo not shown) registered a ring closure, yield of all isomers in series [1] of 82%.
What is called IC50 is the concentration that gives 50% inhibition. `O=C1NC(=O)C2=C1c1cn(c3ccccc13)CCO[C@H](CNCc1ccccc1)CCn1cc2c2ccccc21` [Example 18s]: the IC50 in series [2] was more than 100 µM.
As to `CN(C)CCCn1cc(C2=C(c3c[nH]c4ccccc34)C(=O)NC2=O)c2ccccc21` [3-[1-(3-dimethylaminopropyl)-indol-3-yl]-4-(1H-indol-3-yl)-1H-pyrrole-2,5-dione], the PKC isozyme selectivity result in series [3] is “slight selectivity for the calcium dependent isozymes; also recorded: no difference, or possibly slight selectivity, for alpha over beta-1 and beta-2 isozymes”.
On to `O=C1NC(=O)C2=C1c1cn(c3ccccc13)CCO[C@H](CNS(=O)(=O)c1ccccc1)CCn1cc2c2ccccc21` [Example 21s], for which, on PKC-α, the IC50 is more than 5 µM.
